{"source": "patent US9302999B2", "about": "“Substituted triazoles as herbicides” (E. I. DU PONT DE NEMOURS AND COMPANY, priority 2012, dated 2016)", "assay_type_in_all_cases": "in vivo", "key": {"rice (Oryza sativa)": {"test_system": "rice (Oryza sativa)", "test": "Test B flooded paddy: rice", "settings": "Flood; 250 g ai/ha; applied to paddy water at 2-leaf stage; visually evaluated after 13 to 15 days", "method_in_brief": "(§1)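 Greenhouse assay lasting 13 to 15 days. Treatment was into water flooding pots 3 cm deep, at the 2-leaf stage, with that level sustained afterwards. Scores compare treated with control plants visually, 100 denoting complete control and 0 no effect; a dash marks no test result.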"}, "[1]": {"test_system": "barnyardgrass (Echinochloa crus-galli)", "test": "Test B flooded paddy: barnyardgrass", "settings": "Flood; 250 g ai/ha; applied to paddy water at 2-leaf stage; visually evaluated after 13 to 15 days", "method_in_brief": "as §1"}, "[2]": {"test_system": "blackgrass (Alopecurus myosuroides)", "test": "Test C pre-/postemergence: blackgrass", "method_in_brief": "(§2)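 Visual injury scored 0–100 (100 = complete control) against untreated controls after 13–15 greenhouse days. Surfactant-containing solvent formulations applied either to soil after sowing (loam/sand) or over 1- to 4-leaf plants, 2–18 cm tall.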"}, "[3]": {"test_system": "winter wheat (Triticum aestivum)", "test": "Test C pre-/postemergence: winter wheat", "method_in_brief": "as §2"}, "corn (Zea mays)": {"test_system": "corn (Zea mays)", "test": "Test C pre-/postemergence: corn", "method_in_brief": "as §2"}, "[4]": {"test_system": "foxtail, giant (giant foxtail, Setaria faberii)", "test": "Test C pre-/postemergence: foxtail, giant", "method_in_brief": "as §2"}, "[5]": {"test_system": "johnsongrass (Sorghum halepense)", "test": "Test C pre-/postemergence: johnsongrass", "method_in_brief": "as §2"}, "kochia (Kochia scoparia)": {"test_system": "kochia (Kochia scoparia)", "test": "Test C pre-/postemergence: kochia", "method_in_brief": "as §2"}, "[6]": {"test_system": "pigweed (Amaranthus retroflexus)", "test": "Test C pre-/postemergence: pigweed", "method_in_brief": "as §2"}, "soybean (Glycine max)": {"test_system": "soybean (Glycine max)", "test": "Test C pre-/postemergence: soybean", "method_in_brief": "as §2"}, "[7]": {"test_system": "velvetleaf (Abutilon theophrasti)", "test": "Test C pre-/postemergence: velvetleaf", "method_in_brief": "as §2"}, "[8]": {"settings": "Postemergence, 31 g ai/ha, scale 0 to 100 (0 no effect, 100 complete control)"}, "[9]": {"settings": "Postemergence, 62 g ai/ha, scale 0 to 100 (0 no effect, 100 complete control)"}, "[10]": {"settings": "Postemergence, 125 g ai/ha, scale 0 to 100, 0 no effect, 100 complete control"}, "[11]": {"settings": "Postemergence, 250 g ai/ha, scale 0 to 100"}, "[12]": {"settings": "Preemergence, 31 g ai/ha, scale 0 (no effect) to 100 (complete control)"}, "[13]": {"settings": "Preemergence, 62 g ai/ha, scale 0 to 100, 0 no effect, 100 complete control"}, "[14]": {"settings": "Preemergence, 125 g ai/ha, scale 0 to 100, 0 no effect, 100 complete control"}, "[15]": {"settings": "Preemergence, 250 g ai/ha, scale 0 to 100, 0 no effect, 100 complete control"}, "[16]": {"settings": "Postemergence, 250 g ai/ha, scale 0 to 100 (0 no effect, 100 complete control)"}}}
{"smiles": "CCOc1nn(-c2ccc(F)cc2)nc1Cc1ccnc(C(F)(F)F)c1", "note": "[Compound 196, 4-[[5-ethoxy-2-(4-fluorophenyl)-2H-1,2,3-triazol-4-yl]methyl]-2-(trifluoromethyl)pyridine]", "values": [{"measurement": "Plant response rating, Rice (0 to 100 scale, 0 is no effect, 100 is complete control)", "setting": "rice (Oryza sativa)", "result": 70}, {"measurement": "Plant response rating, Barnyardgrass (0 to 100 scale, 0 is no effect, 100 is complete control)", "setting": "[1]", "result": 85}, {"measurement": "Plant response rating, Blackgrass", "setting": "[2]; [8]", "result": 70}, {"measurement": "Plant response rating, Blackgrass", "setting": "[2]; [9]", "result": 80}, {"measurement": "Plant response rating, Blackgrass", "setting": "[2]; [10]", "result": 80}, {"measurement": "Plant response rating, Blackgrass", "setting": "[2]; [11]", "result": 80}, {"measurement": "Plant response rating, Blackgrass", "setting": "[2]; [12]", "result": 90}, {"measurement": "Plant response rating, Blackgrass", "setting": "[2]; [13]", "result": 90}, {"measurement": "Plant response rating, Blackgrass", "setting": "[2]; [14]", "result": 90}, {"measurement": "Plant response rating, Blackgrass", "setting": "[2]; [15]", "result": 90}, {"measurement": "Plant response rating, Wheat", "setting": "[3]; [8]", "result": 15}, {"measurement": "Plant response rating, Wheat", "setting": "[3]; [9]", "result": 35}, {"measurement": "Plant response rating, Wheat", "setting": "[3]; [10]", "result": 45}, {"measurement": "Plant response rating, Wheat", "setting": "[3]; [16]", "result": 45}, {"measurement": "Plant response rating, Wheat", "setting": "[3]; [12]", "result": 0}, {"measurement": "Plant response rating, Wheat", "setting": "[3]; [13]", "result": 15}, {"measurement": "Plant response rating, Wheat", "setting": "[3]; [14]", "result": 40}, {"measurement": "Plant response rating, Wheat", "setting": "[3]; [15]", "result": 50}, {"measurement": "Plant response rating, Corn", "setting": "corn (Zea mays); [8]", "result": 60}, {"measurement": "Plant response rating, Corn", "setting": "corn (Zea mays); [9]", "result": 60}, {"measurement": "Plant response rating, Corn", "setting": "corn (Zea mays); [10]", "result": 65}, {"measurement": "Plant response rating, Corn", "setting": "corn (Zea mays); [11]", "result": 65}, {"measurement": "Plant response rating, Corn", "setting": "corn (Zea mays); [12]", "result": 25}, {"measurement": "Plant response rating, Corn", "setting": "corn (Zea mays); [13]", "result": 35}, {"measurement": "Plant response rating, Corn", "setting": "corn (Zea mays); [14]", "result": 45}, {"measurement": "Plant response rating, Corn", "setting": "corn (Zea mays); [15]", "result": 50}, {"measurement": "Plant response rating, Foxtail, Giant", "setting": "[4]; [8]", "result": 85}, {"measurement": "Plant response rating, Foxtail, Giant", "setting": "[4]; [9]", "result": 85}, {"measurement": "Plant response rating, Foxtail, Giant", "setting": "[4]; [10]", "result": 90}, {"measurement": "Plant response rating, Foxtail, Giant", "setting": "[4]; [11]", "result": 90}, {"measurement": "Plant response rating, Foxtail, Giant", "setting": "[4]; [12]", "result": 100}, {"measurement": "Plant response rating, Foxtail, Giant", "setting": "[4]; [13]", "result": 100}, {"measurement": "Plant response rating, Foxtail, Giant", "setting": "[4]; [14]", "result": 100}, {"measurement": "Plant response rating, Foxtail, Giant", "setting": "[4]; [15]", "result": 100}, {"measurement": "Plant response rating, Johnsongrass", "setting": "[5]; [8]", "result": 80}, {"measurement": "Plant response rating, Johnsongrass", "setting": "[5]; [9]", "result": 90}, {"measurement": "Plant response rating, Johnsongrass", "setting": "[5]; [10]", "result": 90}, {"measurement": "Plant response rating, Johnsongrass", "setting": "[5]; [16]", "result": 95}, {"measurement": "Plant response rating, Johnsongrass", "setting": "[5]; [12]", "result": 98}, {"measurement": "Plant response rating, Johnsongrass", "setting": "[5]; [13]", "result": 100}, {"measurement": "Plant response rating, Johnsongrass", "setting": "[5]; [15]", "result": 100}, {"measurement": "Plant response rating, Kochia", "setting": "kochia (Kochia scoparia); [8]", "result": 85}, {"measurement": "Plant response rating, Kochia", "setting": "kochia (Kochia scoparia); [9]", "result": 90}, {"measurement": "Plant response rating, Kochia", "setting": "kochia (Kochia scoparia); [10]", "result": 90}, {"measurement": "Plant response rating, Kochia", "setting": "kochia (Kochia scoparia); [16]", "result": 90}, {"measurement": "Plant response rating, Kochia", "setting": "kochia (Kochia scoparia); [12]", "result": 90}, {"measurement": "Plant response rating, Kochia", "setting": "kochia (Kochia scoparia); [13]", "result": 98}, {"measurement": "Plant response rating, Kochia", "setting": "kochia (Kochia scoparia); [14]", "result": 98}, {"measurement": "Plant response rating, Kochia", "setting": "kochia (Kochia scoparia); [15]", "result": 98}, {"measurement": "Plant response rating, Pigweed", "setting": "[6]; [8]", "result": 98}, {"measurement": "Plant response rating, Pigweed", "setting": "[6]; [9]", "result": 98}, {"measurement": "Plant response rating, Pigweed", "setting": "[6]; [10]", "result": 98}, {"measurement": "Plant response rating, Pigweed", "setting": "[6]; [16]", "result": 98}, {"measurement": "Plant response rating, Pigweed", "setting": "[6]; [12]", "result": 95}, {"measurement": "Plant response rating, Pigweed", "setting": "[6]; [13]", "result": 98}, {"measurement": "Plant response rating, Pigweed", "setting": "[6]; [14]", "result": 98}, {"measurement": "Plant response rating, Pigweed", "setting": "[6]; [15]", "result": 98}, {"measurement": "Plant response rating, Soybean", "setting": "soybean (Glycine max); [8]", "result": 45}, {"measurement": "Plant response rating, Soybean", "setting": "soybean (Glycine max); [9]", "result": 50}, {"measurement": "Plant response rating, Soybean", "setting": "soybean (Glycine max); [10]", "result": 65}, {"measurement": "Plant response rating, Soybean", "setting": "soybean (Glycine max); [16]", "result": 70}, {"measurement": "Plant response rating, Soybean", "setting": "soybean (Glycine max); [12]", "result": 10}, {"measurement": "Plant response rating, Soybean", "setting": "soybean (Glycine max); [13]", "result": 15}, {"measurement": "Plant response rating, Soybean", "setting": "soybean (Glycine max); [14]", "result": 30}, {"measurement": "Plant response rating, Soybean", "setting": "soybean (Glycine max); [15]", "result": 35}, {"measurement": "Plant response rating, Velvetleaf", "setting": "[7]; [8]", "result": 55}, {"measurement": "Plant response rating, Velvetleaf", "setting": "[7]; [9]", "result": 65}, {"measurement": "Plant response rating, Velvetleaf", "setting": "[7]; [10]", "result": 75}, {"measurement": "Plant response rating, Velvetleaf", "setting": "[7]; [16]", "result": 80}, {"measurement": "Plant response rating, Velvetleaf", "setting": "[7]; [12]", "result": 60}, {"measurement": "Plant response rating, Velvetleaf", "setting": "[7]; [13]", "result": 70}, {"measurement": "Plant response rating, Velvetleaf", "setting": "[7]; [14]", "result": 80}, {"measurement": "Plant response rating, Velvetleaf", "setting": "[7]; [15]", "result": 100}]}
